The values that follow are results of earlier work, collected in patent publication EP0404807B1, “DEPRENYL FOR SYSTEMIC TRANSDERMAL ADMINISTRATION” (SOMERSET PHARMACEUTICALS, INC., priority 1988, dated 1989).

For this data set the following is noted: deprenyl alone, as stated in EP 0241809 A.

For `C#CCN(C)C(C)Cc1ccccc1` (stereo not shown) [deprenyl, N-methyl-N-(1-phenyl-2-propyl)-2-propinylamine], the anti-Parkinsonism action entry is reported as “almost no anti-Parkinsonism action”.
